Results from patent US20140148476A1, “METHODS FOR TREATING OBESITY AND DISORDERS ASSOCIATED WITH HYPERLIPIDEMIA IN A MAMMAL” (AEGERION PHARMACEUTICALS, INC., priority 2009, published 2014).
Entries after “also recorded” stand apart in the source; their conditions may differ. Read-outs that look alike come from different tables or passages of the source.

Legend:
DGAT −/−mice = assay: Hepatic triglyceride levels in DGAT +/− and DGAT −/− mice dosed with AEGR-733; assay type: in vivo; details: DGAT −/− mice treated with AEGR-733 compared to DGAT +/− mice treated with AEGR-733; oral gavage for four successive days, chow diet, euthanized approximately 6 hours after the last dose
Description: DGAT +/−mice or DGAT −/−mice (Jackson Laboratory, Me., U.S.A.) were fed a chow diet ad libitum. Mice were dosed by oral gavage for four successive days with AEGR-733 or with vehicle control at about 9:00 AM. AEGR-733 was dissolved in M-pyrol and diluted to appropriate concentration in vehicle. Final vehicle composition was 10% M-pyrol, 80% water, 5% cremophore, and 5% ethanol. Dosing volume was 200 μl. The mice were euthanized approximately 6 hours after the last dose. Blood was obtained at time of sacrifice by orbital eye bleed and plasma was made for determination of total cholesterol (TC), high density lipoprotein cholesterol (HDL-C), triglyceride (TG) and non-HDL-C.

[1] = 25 mg/day, some patients, monotherapy, cited from earlier work
[2] = cited from earlier work
[3] = clinical studies, dosages of 80 mg/day or greater

Row | Compound | hepatic triglyceride levels (DGAT −/−mice) | adverse events [1] | adverse events ([1]; listed as BMS-201038) | adverse events ([2]; 80 mg/day) | adverse events ([2]; 160 mg/day) | adverse events [2, 3] | therapeutic effectiveness [2, 3]
1 | O=C(NC1CCN(CCCCC2(C(=O)NCC(F)(F)F)c3ccccc3-c3ccccc32)CC1)c1ccccc1-c1ccc(C(F)(F)F)cc1 [AEGR-733, N-(2,2,2-Trifluorethyl)-9-[4-[4-[[[4′-(trifluoromethyl)[1,1′biphenyl]-2-Yl]carbonyl]amino]-1-piperidinyl]butyl]9H-fluorene-9-carboxamide] | significantly reduced; also recorded: significantly lower | gastrointestinal disorders, abnormalities in liver function and/or hepatic steatosis | gastrointestinal disturbances, abnormalities in liver function, and hepatic steatosis |  |  |  | 
2 | Cc1cc(C)c2c3ccccc3n(Cc3ccc([C@@H](C(=O)N[C@H](CO)c4ccccc4)C4CCCC4)cc3)c2n1 [implitapide, (2S)-2-cyclopentyl-2-[4-[(2,4-dimethyl-9H-pyrido[2,3-b]indol-9-yl)methyl]phenyl]-N-[(1S)-2-hydroxy-1-phenylethyl]ethanamide] |  |  |  | gastrointestinal disorders, abnormalities in liver function and/or hepatic steatosis | gastrointestinal disorders, abnormalities in liver function and/or hepatic steatosis | gastrointestinal disturbances, abnormalities in liver function, and hepatic steatosis | therapeutically effective
